Source: patent US10981932B2, “Macrocyclic indole derivatives” (Bayer Aktiengesellschaft, priority 2016, dated 2021)

Key:
SUDHL10 [1] = assay: Induction of cytotoxicity (CellTiter-Glo, 5 h), SUDHL10; conditions: Homo sapiens, SU-DHL10, 5 h, read-out: Cytotox SUDHL10 [M] (median), SUDHL10 cells, cytotoxicity induction, CellTiter-Glo, 5 h incubation, median
A2780 = assay: Anti-proliferative effect (CellTiter-Glo, 72 h), A2780; assay type: cell-based; conditions: Homo sapiens, A2780, 72 h, A2780 cells, median, read-out: IC50 antiproliferation assay A2780 [M] (median)
Method in brief: (§1)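 Cells were treated with compounds for 72 h at 37 °C in a humidified incubator, and viability was measured by CellTiter-Glo luminescence. A parallel day 0 plate, read the same way, gave the time zero baseline.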

SUDHL10 [2] = assay: Induction of caspase-3/7 activity (Caspase-Glo 3/7), SUDHL10; assay type: cell-based; conditions: Homo sapiens, SU-DHL10, 3 h, caspase-3/7 induction, SUDHL10 cells, 3 h treatment; median
Method in brief: (§2)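 DLBCL cells treated with compounds for 3 h at 37 °C, then caspase-3/7 activity read by Caspase-Glo 3/7 luminescence. Medium-only background subtracted; EC50 fitted with C0 fixed at 1 and top set to the reference compound's maximal induction.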

OPM2 = assay: Anti-proliferative effect (CellTiter-Glo, 72 h), OPM2; assay type: cell-based; conditions: Homo sapiens, OPM-2, 72 h, OPM2 cells, median, read-out: IC50 antiproliferation assay OPM2 [M] (median)
Method: Assessment of the Anti-Proliferative Effect of Compounds in Different Cell Lines
The impact of compounds on the proliferation of different cell lines was assessed using the CellTiter-Glo® Luminescent Cell Viability reagent from Promega (G7573). Of note, SUDHL10 and SUDHL5 (DLBCL), NCI-H929 (Multiple Myeloma), A2780 (ovarian carcinoma) as well as MV-4-11(AML) cells are sensitive to MCL-1 inhibition.
In parallel, cells were plated in a reference (day 0) plate for time zero determination.
Rim wells were excluded. The cells were incubated for 72 h hours in a humidified incubator at 37° C. The day 0 plate was measured by adding 30 μl/well of CTG solution (CellTiter-Glo® Luminescent Cell Viability reagent, Promega G7573) to time zero wells in the reference plate followed by a 10 minutes incubation and luminescence reading at 0.1 ms, using the PHERAstar FS microplate reader (BMG Labtech).
After 72 h incubation, the treated plates were measured in the same way as the day 0 plate mentioned above.

MCL-1 = MCL-1 (Homo sapiens, UniProt Q07820); assay: Protein-protein interaction assay MCL-1/Noxa BH3 peptide (MCL-1 assay), TR-FRET; assay type: binding; conditions: MBP-MCL-1 / Noxa BH3-derived peptide, median
Method in brief: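 TR-FRET, 665/622 nm emission ratio (excitation 330–350 nm), measured MCL-1/Noxa complex formation. 1 nM MBP-MCL-1, 50 mM Tris/HCl pH 7, 0.1% BGG, 2 mM DTT. Incubation 1 h at 22 °C, then overnight at 4 °C. IC50 by 4-parameter regression, normalized to DMSO (0%) and no-MCL-1 (100%) controls.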

SUDHL5 [3] = assay: Induction of caspase-3/7 activity (Caspase-Glo 3/7), SUDHL5; assay type: cell-based; conditions: Homo sapiens, SU-DHL-5, 3 h, caspase-3/7 induction, SUDHL5 cells, 3 h treatment; median
Method in brief: as §2

SUDHL5 [4] = assay: Induction of cytotoxicity (CellTiter-Glo, 5 h), SUDHL5; conditions: Homo sapiens, SU-DHL-5, 5 h, read-out: Cytotox SUDHL5 [M] (median), SUDHL5 cells, cytotoxicity induction, CellTiter-Glo, 5 h incubation, median
SUDHL10 [5] = assay: Anti-proliferative effect (CellTiter-Glo, 72 h), SUDHL10; assay type: cell-based; conditions: Homo sapiens, SU-DHL10, 72 h, SUDHL10 cells, antiproliferation, 72 h incubation, median, read-out: Antiproli SUDHL10 [M] (median)
Method in brief: as §1

Chain of MCL-1 (Q07820 whole entry): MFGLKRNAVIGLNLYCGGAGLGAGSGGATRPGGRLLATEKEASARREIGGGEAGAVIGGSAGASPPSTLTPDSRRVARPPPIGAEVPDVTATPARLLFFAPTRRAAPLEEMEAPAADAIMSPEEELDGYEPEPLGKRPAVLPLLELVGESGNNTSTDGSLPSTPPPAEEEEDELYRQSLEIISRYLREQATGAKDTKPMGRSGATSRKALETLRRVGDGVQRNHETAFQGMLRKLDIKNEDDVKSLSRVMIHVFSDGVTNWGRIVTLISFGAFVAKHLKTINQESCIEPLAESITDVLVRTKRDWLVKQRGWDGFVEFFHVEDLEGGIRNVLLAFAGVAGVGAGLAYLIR

SMILES	IC50 (SUDHL10 [1])	IC50 (A2780)	EC50 (SUDHL10 [2])	IC50 (OPM2)	IC50 (MCL-1)	EC50 (SUDHL5 [3])	IC50 (SUDHL5 [4])	IC50 (SUDHL10 [5])
Cc1nn(C)c2c1-c1cccc3c(CCCOc4cccc5c4CCCC5)c(C(=O)O)n(c13)CCCOC2 (racemic) [Example 005, (rac)-9,11-dimethyl-1-[3-(5,6,7,8-tetrahydronaphthalen-1-yloxy)propyl]-5,6,8,9-tetrahydro-4H-pyrazolo[4′,3′:8,9][1,5]oxazecino[7,6,5-hi]indole-2-carboxylic Acid]	> 3.3e-05 M	> 3.3e-05 M	> 33 µM	> 3.3e-05 M	0.066 µM	> 33 µM	> 3.3e-05 M	> 3.3e-05 M
Cc1ccc2cccc(OCCCc3c(C(=O)O)n4c5c(cccc35)-c3c(C)nn(C)c3COCCCC4)c2c1 (racemic) [Example 012, (rac)-1,3-dimethyl-7-{3-[(7-methyl-1-naphthyl)oxy]propyl}-1,10,11,12,13,15-hexahydropyrazolo[4′,3′:9,10][1,6]oxazacycloundecino[8,7,6-hi]indole-8-carboxylic Acid]	> 3.3e-05 M	3.13e-05 M	> 33 µM	2.17e-05 M	0.0274 µM	> 33 µM	3.14e-05 M	7.15e-06 M
Cc1cc(OCCCc2c(C(=O)O)n3c4c(cccc24)-c2c(C)nn(C)c2COCCC3)cc(C)c1Cl (racemic) [Example 013, (rac)-1-[3-(4-chloro-3,5-dimethylphenoxy)propyl]-9,11-dimethyl-5,6,8,9-tetrahydro-4H-pyrazolo[4′,3′:8,9][1,5]oxazecino[7,6,5-hi]indole-2-carboxylic Acid]	> 3.3e-05 M	3.27e-05 M	> 33 µM	> 3.3e-05 M	0.0345 µM	> 33 µM	> 3.3e-05 M	4.83e-06 M
Cc1nn(C)c2c1-c1cccc3c(CCCOc4ccccc4)c(C(=O)O)n(c13)CCCCOC2 (racemic) [Example 016, (rac)-1,3-dimethyl-7-(3-phenoxypropyl)-1,10,11,12,13,15-hexahydropyrazolo[4′,3′:9,10][1,6]oxazacycloundecino[8,7,6,6-hi]indole-8-carboxylic Acid]	> 3.3e-05 M	> 3.3e-05 M	> 33 µM	> 3.3e-05 M	0.495 µM	> 33 µM	> 3.3e-05 M	> 3.3e-05 M
COCCn1nc2c(c1CN1CCOCC1)-c1cccc3c(CCCOc4cccc5ccccc45)c(C(=O)O)n(c13)CCCN(C)C2 (racemic) [Example 056, (rac)-10-(2-methoxyethyl)-7-methyl-11-(morpholin-4-ylmethyl)-1-[3-(naphthalen-1-yloxy)propyl]-4,5,6,7,8,10-hexahydropyrazolo[3′,4′:7,8][1,5]diazecino[9,10,1-hi]indole-2-carboxylic Acid]	> 3.3e-05 M	> 3.3e-05 M	> 33 µM	> 3.3e-05 M	0.049 µM	> 33 µM	> 3.3e-05 M	2e-05 M
Cn1nc2c(c1CN1CCOCC1)-c1cccc3c(CCCOc4cccc5ccccc45)c(C(=O)O)n(c13)C/C=C\COC2 (racemic) [Example 066, (rac)-(11Z)-2-Methyl-3-(morpholin-4-ylmethyl)-7-[3-(naphthalen-1-yloxy)propyl]-2,10,13,15-tetrahydropyrazolo[4′,3′:9,10][1,6]oxazacycloundecino[8,7,6-hi]indole-8-carboxylic Acid]	> 3.3e-05 M	2.8e-05 M	29 µM	> 3.3e-05 M	0.0285 µM	> 33 µM	> 3.3e-05 M	6.96e-06 M
Cc1c2c(nn1C)CN(C)CCCCn1c(C(=O)O)c(CCCOc3cccc4ccccc34)c3cccc-2c31 (racemic) [Example 067, (rac)-2,3,14-trimethyl-7-[3-(naphthalen-1-yloxy)propyl]-10,11,12,13,14,15-hexahydro-2H-pyrazolo[3′,4′:8,9][1,6]diazacycloundecino[10,11,1-hi]indole-8-carboxylic Acid]	> 3.3e-05 M	2.72e-06 M	> 33 µM	1.48e-05 M	0.0221 µM	> 33 µM	> 3.3e-05 M	5.38e-06 M
COc1cc2cc(c1)-c1cccc3c(CCCOc4cccc5c4CCCC5)c(C(=O)O)n(c13)CCCCCO2 (racemic) [Example 116, (rac)-12-Methoxy-1-[3-(5,6,7,8-tetrahydronaphthalen-1-yloxy)propyl]-5,6,7,8-tetrahydro-4H-10,14-(metheno)[1,7]oxazacyclotetradecino[9,8,7-hi]indole-2-carboxylic Acid]	> 3.3e-05 M	2.21e-05 M	> 33 µM	1.79e-05 M	8.28 µM	> 33 µM	> 3.3e-05 M	> 3.3e-05 M
Cc1ccc2cc1-c1cccc3c(CCCOc4cccc5ccccc45)c(C(=O)O)n(c13)CCOCCO2 (racemic) [Example 117, (rac)-13-Methyl-1-[3-(naphthalen-1-yloxy)propyl]-4,5,7,8-tetrahydro-10,14-(metheno)[1,4,7]dioxazacyclotetradecino[9,8,7-hi]indole-2-carboxylic Acid]	> 3.3e-05 M	> 3.3e-05 M	> 33 µM	> 3.3e-05 M	0.633 µM	> 33 µM	> 3.3e-05 M	> 3.3e-05 M
CN1CCCCn2c(C(=O)O)c(CCCOc3cccc4ccccc34)c3cccc(c32)-c2cnn(C)c2C1 (racemic) [Example 127, (rac)-1,14-dimethyl-7-[3-(naphthalen-1-yloxy)propyl]-10,11,12,13,14,15-hexahydro-1H-pyrazolo[3′,4′:8,9][1,6]diazacycloundecino[10,11,1-hi]indole-8-carboxylic Acid]	> 3.3e-05 M	2.44e-05 M	> 33 µM	> 3.3e-05 M	0.0144 µM	> 33 µM	> 3.3e-05 M	9.32e-06 M
Cn1ncc2c1COCCCCn1c(C(=O)O)c(CCCOc3cccc4ccccc34)c3cccc-2c31 (racemic) [Example 128, (rac)-1-methyl-7-[3-(naphthalen-1-yloxy)propyl]-1,10,11,12,13,15-hexahydropyrazolo[4′,3′:9,10][1,6]oxazacycloundecino[8,7,6-hi]indole-8-carboxylic Acid]	> 3.3e-05 M	3.04e-05 M	> 33 µM	> 3.3e-05 M	0.0403 µM	> 33 µM	> 3.3e-05 M	1.29e-05 M
CN1CCCn2c(C(=O)O)c(CCCOc3cccc4ccccc34)c3cccc(c32)-c2c(CNCC(F)(F)F)nn(C)c2C1 (racemic) [Example 129, (rac)-7,9-dimethyl-1-[3-(naphthalen-1-yloxy)propyl]-11-{[(2,2,2-trifluoroethyl)amino]methyl}-4,5,6,7,8,9-hexahydropyrazolo[3′,4′:7,8][1,5]diazecino[9,10,1-hi]indole-2-carboxylic Acid (Racemate)]	> 3.3e-05 M	1.7e-05 M	> 33 µM	> 3.3e-05 M	0.0222 µM	> 33 µM	> 3.3e-05 M	6.99e-06 M
Cn1nc(CN2CCOCC2)c2c1COCCCn1c(C(=O)O)c(CCCOc3cccc4ccccc34)c3cccc-2c31 (racemic) [Example 138, (rac)-9-methyl-11-(morpholin-4-ylmethyl)-1-[3-(naphthalen-1-yloxy)propyl]-5,6,8,9-tetrahydro-4H-pyrazolo[4′,3′:8,9][1,5]oxazecino[7,6,5-hi]indole-2-carboxylic Acid]	> 3.3e-05 M	> 3.3e-05 M	> 33 µM	> 3.3e-05 M	0.0135 µM	11.1 µM	1.13e-05 M	1.16e-05 M
